Like-named read-outs stand apart in the source and are kept apart here. Peptide text beside a SMILES is read from it. * marks the point of attachment. βNA = c1ccc2cc(N*)ccc2c1
Columns and labels:
Assay type in all cases: cell-based, Pseudomonas aeruginosa
[1] = system: multidrug-resistant P. aeruginosa clinical isolates from the CDC-FDA; experiment: Levofloxacin MIC potentiation, CDC-FDA isolates; details: for Levofloxacin MIC fold difference, +EPI / Levofloxacin MIC, +EPI: EPI […] (TXA11114, TXA09155) or 50 μg/mL (MC-04,124, PAβN); for Share of CDC isolates with levofloxacin MIC reduced ≥8-fold (potentiated): TXA11114 […], PAβN and MC-04,124 50 µg/mL
Description: In a comparative study, the levofloxacin-potentiating activity of TXA11114 was evaluated alongside the well-characterized EPIs PAβN and MC-04,124 using P. aeruginosa clinical isolates obtained from the CDC and FDA Antimicrobial Resistance Isolate Bank and the Walter Reed Army Institute of Research (WRAIR). […] While PAβN has been widely studied in laboratory strains, its activity against the CDC/FDA P. aeruginosa panel has been reported only sparingly, limiting direct cross-study comparisons.
(§1) MIC assays for potentiation of antimicrobial activity against P. aeruginosa were performed as described previously.

P. aeruginosa ATCC 27853 = experiment: MIC and levofloxacin potentiation (broth microdilution); details: for LVX MIC (+EPI): levofloxacin MIC with EPI at […]
Description: Once synthesized, the three fluorinated EPI analogs (TXA11114, TXA11164 and TXA12027) were first assayed for their antibacterial activities against P. aeruginosa ATCC 27853. They had MICs of 100, >200 and 100 µg/mL, respectively (Table 1). […] Particularly, the inactivity of TXA11164 was surprising as the pKa values of both the amines are similar to that in TXA11114.
as §1

[2] = system: P. aeruginosa ATCC 27853 ompH mutants EPIR32, EPIR36, EPIR38; experiment: microbe, parasite or virus in culture
Description: as §1

P. aeruginosa = experiment: MIC potentiation of antimicrobial agents by EPIs;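 on Fold difference of antibiotic MIC + TXA01182: TXA01182 tested at 6.25 µg/mL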;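 on Fold difference of antibiotic MIC + TXA09155: TXA09155 tested at 6.25 µg/mL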; on Fold difference of antibiotic MIC + TXA11114: TXA11114 at 6.25 µg/mL;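 on MIC of antibiotic + TXA01182: TXA01182 tested at 6.25 µg/mL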;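 on MIC of antibiotic + TXA09155: TXA09155 tested at 6.25 µg/mL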; on MIC of antibiotic + TXA11114: TXA11114 at 6.25 µg/mL
Description: In contrast, the activities of gentamicin and imipenem were unchanged in the presence of TXA11114 under the conditions tested. Although gentamicin can be transported by the MexXY efflux system, the absence of potentiation in this assay is not sufficient to draw conclusions regarding MexXY inhibition or overall efflux specificity.
as §1

[3] = Pseudomonas aeruginosa, ATCC27853, EPIR32
[4] = Pseudomonas aeruginosa, ATCC27853, EPIR36
[5] = Pseudomonas aeruginosa, ATCC27853, EPIR38
[6] = ATCC 27853 parent strain (Table S1)
[7] = Pseudomonas aeruginosa, ATCC27853, EPI alone, ATCC 27853, read-out: EPI MIC

## NCC1CNC(C(=O)NC(CCc2ccccc2)C(=O)Nc2ccc3ncccc3c2)C1 (stereo not shown) [MC-04,124]
[1]; AR-0229
  Levofloxacin MIC fold difference, +EPI: 1 fold
  Levofloxacin MIC, +EPI: 64 µg/mL
[1]; AR-0232
  Levofloxacin MIC fold difference, +EPI: 1 fold
  Levofloxacin MIC, +EPI: 8 µg/mL
[1]; AR-0233
  Levofloxacin MIC fold difference, +EPI: 1 fold
  Levofloxacin MIC, +EPI: 4 µg/mL
[1]; AR-0234
  Levofloxacin MIC fold difference, +EPI: 1 fold
  Levofloxacin MIC, +EPI: 8 µg/mL
[1]; AR-0239
  Levofloxacin MIC fold difference, +EPI: 1 fold
  Levofloxacin MIC, +EPI: 64 µg/mL
[1]; AR-0242
  Levofloxacin MIC fold difference, +EPI: 2 fold
  Levofloxacin MIC, +EPI: 4 µg/mL
[1]; AR-0244
  Levofloxacin MIC fold difference, +EPI: 1 fold
[1]; AR-0246
  Levofloxacin MIC fold difference, +EPI: 1 fold
  Levofloxacin MIC, +EPI: 64 µg/mL
[1]; AR-0248
  Levofloxacin MIC fold difference, +EPI: 1 fold
  Levofloxacin MIC, +EPI: 16 µg/mL
[1]; AR-0249
  Levofloxacin MIC fold difference, +EPI: 1 fold
  Levofloxacin MIC, +EPI: 64 µg/mL
[1]; AR-0252
  Levofloxacin MIC fold difference, +EPI: 1 fold
  Levofloxacin MIC, +EPI: 32 µg/mL
[1]; AR-0253
  Levofloxacin MIC fold difference, +EPI: 1 fold
  Levofloxacin MIC, +EPI: 2 µg/mL
[1]; AR-0264
  Levofloxacin MIC fold difference, +EPI: 1 fold
  Levofloxacin MIC, +EPI: 64 µg/mL
[1]
  Share of CDC isolates with levofloxacin MIC reduced ≥8-fold (potentiated): minimal MIC shifts

## C[C@@H](O)[C@H]1C(=O)N2C(C(=O)O)=C(S[C@@H]3CN[C@H](C(=O)N(C)C)C3)[C@H](C)[C@H]12 [MEM, meropenem]
P. aeruginosa ATCC 27853; Pseudomonas aeruginosa, ATCC27853, ATCC 27853 parent strain (Table S1), read-out: MIC
  MIC: 1 µg/mL
[2]; [3]
  MIC: 0.125 µg/mL
[2]; [4]
  MIC: 0.125 µg/mL
[2]; [5]
  MIC: 0.5 µg/mL

## NC(N)=NCCC[C@H](NC(=O)[C@@H](N)Cc1ccccc1)C(=O)Nc1ccc2ccccc2c1 [PAβN, phenylalanine-arginine β-naphthylamide] (H-Phe-Arg-βNA)
[1]; AR-0229
  Levofloxacin MIC fold difference, +EPI: 1 fold
  Levofloxacin MIC, +EPI: 64 µg/mL
[1]; AR-0232
  Levofloxacin MIC fold difference, +EPI: 16 fold
  Levofloxacin MIC, +EPI: 0.5 µg/mL
[1]; AR-0233
  Levofloxacin MIC fold difference, +EPI: 1 fold
  Levofloxacin MIC, +EPI: 4 µg/mL
[1]; AR-0234
  Levofloxacin MIC fold difference, +EPI: 16 fold
  Levofloxacin MIC, +EPI: 0.5 µg/mL
[1]; AR-0239
  Levofloxacin MIC fold difference, +EPI: 8, (8) fold
  Levofloxacin MIC, +EPI: 8, (8) μg/mL
[1]; AR-0242
  Levofloxacin MIC, +EPI: 0.5 µg/mL
[1]; AR-0244
  Levofloxacin MIC fold difference, +EPI: 1 fold
[1]; AR-0246
  Levofloxacin MIC fold difference, +EPI: 1 fold
  Levofloxacin MIC, +EPI: 64 µg/mL
[1]; AR-0248
  Levofloxacin MIC fold difference, +EPI: 1 fold
  Levofloxacin MIC, +EPI: 16 µg/mL
[1]; AR-0249
  Levofloxacin MIC fold difference, +EPI: 8, (8) fold
  Levofloxacin MIC, +EPI: 8, (8) μg/mL
[1]; AR-0252
  Levofloxacin MIC fold difference, +EPI: 32 fold
  Levofloxacin MIC, +EPI: 1 µg/mL
[1]; AR-0253
  Levofloxacin MIC fold difference, +EPI: 64 fold
  Levofloxacin MIC, +EPI: 0.031 µg/mL
[1]; AR-0264
  Levofloxacin MIC fold difference, +EPI: 1 fold
  Levofloxacin MIC, +EPI: 64 µg/mL
[1]
  Share of CDC isolates with levofloxacin MIC reduced ≥8-fold (potentiated): ~ 54%

## CN(C)c1cc(NC(=O)CNC(C)(C)C)c(O)c2c1C[C@H]1C[C@H]3[C@H](N(C)C)C(O)=C(C(N)=O)C(=O)[C@@]3(O)C(O)=C1C2=O [TGC, tigecycline]
P. aeruginosa ATCC 27853; [6]
  MIC: 8 µg/mL
[2]; [3]
  MIC: 2 µg/mL
[2]; [4]
  MIC: 2 µg/mL
[2]; [5]
  MIC: 8 µg/mL

## NCCC(F)[C@@H](N)CNC(=O)c1cc2ccc(-c3ccc(F)cc3)cc2[nH]1 (stereo partly drawn) [TXA11164, N-((2S)-2,5-diamino-3-fluoropentyl)-6-(4-fluorophenyl)-1H-indole-2-carboxamide]
P. aeruginosa ATCC 27853; EPI alone, ATCC 27853
  EPI MIC: >200 µg/mL
P. aeruginosa ATCC 27853; EPI at […], ATCC 27853, listed as TXA11167
  Fold MIC reduction [LVX/EPI-LVX]: lacked potentiation activity
P. aeruginosa ATCC 27853; [7]
  MIC: > 200 µg/mL
P. aeruginosa ATCC 27853; ATCC 27853
  LVX MIC (+EPI): 1 µg/mL

## NCC(F)(F)C[C@@H](N)CNC(=O)c1cc2ccc(-c3ccc(F)cc3)cc2[nH]1 [TXA12027, (R)-N-(2,5-diamino-4,4-difluoropentyl)-6-(4-fluorophenyl)-1H-indole-2-carboxamide]
P. aeruginosa ATCC 27853; [7]
  MIC: 100 µg/mL
P. aeruginosa ATCC 27853; ATCC 27853
  LVX MIC (+EPI): 1 µg/mL

## Cotrimoxazole
P. aeruginosa
  MIC of antibiotic, No EPI: 256 µg/mL
P. aeruginosa; TXA01182 at […]
  Fold difference of antibiotic MIC + TXA01182: 16, (>16) fold
  MIC of antibiotic + TXA01182: 16, (>16) μg/mL
P. aeruginosa; TXA09155 at […]
  Fold difference of antibiotic MIC + TXA09155: 32 fold
  MIC of antibiotic + TXA09155: 8 µg/mL
P. aeruginosa; TXA11114 at […]
  Fold difference of antibiotic MIC + TXA11114: 8 fold
  MIC of antibiotic + TXA11114: 32 µg/mL

## polymyxin B [PMB]
P. aeruginosa ATCC 27853; [6]
  MIC: 2 µg/mL
[2]; EPIR32
  MIC: 4 µg/mL
[2]; EPIR36
  MIC: 4 µg/mL
[2]; EPIR38
  MIC: 4 µg/mL
